The record followed here is ChEMBL document CHEMBL1145343, “Inhibition of kinesin motor proteins by adociasulfate-2” (J Med Chem, 2006).

For orientation: IC50 means the concentration needed to halve the response being measured. A higher IC50 goes with a need for much substance.

In test [1] the target is T1, Kinesin-like protein KIF11 (Homo sapiens, UniProt P52732).
T1 sequence (P52732 whole entry): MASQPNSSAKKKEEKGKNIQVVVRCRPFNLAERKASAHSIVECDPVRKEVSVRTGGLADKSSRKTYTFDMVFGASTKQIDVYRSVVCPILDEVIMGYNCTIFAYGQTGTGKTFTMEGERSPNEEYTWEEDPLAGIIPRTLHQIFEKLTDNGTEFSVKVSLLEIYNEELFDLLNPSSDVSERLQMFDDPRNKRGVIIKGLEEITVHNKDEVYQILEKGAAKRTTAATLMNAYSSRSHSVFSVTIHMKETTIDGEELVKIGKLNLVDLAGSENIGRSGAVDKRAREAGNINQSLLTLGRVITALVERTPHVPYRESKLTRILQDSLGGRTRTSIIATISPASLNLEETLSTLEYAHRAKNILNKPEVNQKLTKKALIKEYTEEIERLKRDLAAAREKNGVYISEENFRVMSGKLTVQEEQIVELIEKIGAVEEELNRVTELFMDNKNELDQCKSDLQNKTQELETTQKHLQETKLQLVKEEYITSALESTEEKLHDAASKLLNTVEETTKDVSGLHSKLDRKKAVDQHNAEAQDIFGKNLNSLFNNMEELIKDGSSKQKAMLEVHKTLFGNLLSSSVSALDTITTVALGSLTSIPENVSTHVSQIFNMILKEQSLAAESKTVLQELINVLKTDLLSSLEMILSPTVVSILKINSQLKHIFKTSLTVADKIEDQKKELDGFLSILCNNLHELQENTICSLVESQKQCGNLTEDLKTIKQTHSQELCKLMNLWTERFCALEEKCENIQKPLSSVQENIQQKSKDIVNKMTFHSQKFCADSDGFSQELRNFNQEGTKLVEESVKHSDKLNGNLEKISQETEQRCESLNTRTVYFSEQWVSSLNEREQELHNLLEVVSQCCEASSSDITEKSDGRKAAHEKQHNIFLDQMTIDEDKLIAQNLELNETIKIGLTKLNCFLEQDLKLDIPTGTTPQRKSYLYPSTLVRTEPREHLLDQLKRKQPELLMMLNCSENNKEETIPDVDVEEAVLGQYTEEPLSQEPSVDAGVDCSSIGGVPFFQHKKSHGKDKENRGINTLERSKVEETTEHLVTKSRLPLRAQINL
Put plainly: Inhibition of kinesin ATPase activity by enzyme-linked inorganic phosphate detection assay without preincubation.

Test [2] deals with T1, Kinesin-like protein KIF11. Put plainly: Inhibition of kinesin ATPase activity by enzyme-linked inorganic phosphate detection assay with 5 mins pre-incubation.

Consider `CC1(C)CCC[C@]2(C)O[C@H]3CC[C@@]4(C)[C@@H](CC[C@]5(C)[C@@H]4CC[C@]4(C)c6c(OS(=O)(=O)O)ccc(OS(=O)(=O)O)c6C[C@@H]54)[C@]3(C)CC[C@@H]12` [ADOCIASULFATE-2], for which the half-inhibitory concentration (IC50) amounted to 13.9 µM in test [1] and 7.3 µM in test [2].
